# According to ChEMBL document CHEMBL4052776, “Discovery of 3-morpholino-imidazole[1,5-a]pyrazine BTK inhibitors for rheumatoid arthritis” (Bioorg Med Chem Lett, 2017):
# pIC50: −log10 of the molar value.
# Target: Voltage-gated inwardly rectifying potassium channel KCNH2 (Homo sapiens, UniProt Q12809)
# Assay: Inhibition of human ERG by [35S]-MK499 displacement or iKr channel assay
# Chain of Voltage-gated inwardly rectifying potassium channel KCNH2 (Q12809 whole entry): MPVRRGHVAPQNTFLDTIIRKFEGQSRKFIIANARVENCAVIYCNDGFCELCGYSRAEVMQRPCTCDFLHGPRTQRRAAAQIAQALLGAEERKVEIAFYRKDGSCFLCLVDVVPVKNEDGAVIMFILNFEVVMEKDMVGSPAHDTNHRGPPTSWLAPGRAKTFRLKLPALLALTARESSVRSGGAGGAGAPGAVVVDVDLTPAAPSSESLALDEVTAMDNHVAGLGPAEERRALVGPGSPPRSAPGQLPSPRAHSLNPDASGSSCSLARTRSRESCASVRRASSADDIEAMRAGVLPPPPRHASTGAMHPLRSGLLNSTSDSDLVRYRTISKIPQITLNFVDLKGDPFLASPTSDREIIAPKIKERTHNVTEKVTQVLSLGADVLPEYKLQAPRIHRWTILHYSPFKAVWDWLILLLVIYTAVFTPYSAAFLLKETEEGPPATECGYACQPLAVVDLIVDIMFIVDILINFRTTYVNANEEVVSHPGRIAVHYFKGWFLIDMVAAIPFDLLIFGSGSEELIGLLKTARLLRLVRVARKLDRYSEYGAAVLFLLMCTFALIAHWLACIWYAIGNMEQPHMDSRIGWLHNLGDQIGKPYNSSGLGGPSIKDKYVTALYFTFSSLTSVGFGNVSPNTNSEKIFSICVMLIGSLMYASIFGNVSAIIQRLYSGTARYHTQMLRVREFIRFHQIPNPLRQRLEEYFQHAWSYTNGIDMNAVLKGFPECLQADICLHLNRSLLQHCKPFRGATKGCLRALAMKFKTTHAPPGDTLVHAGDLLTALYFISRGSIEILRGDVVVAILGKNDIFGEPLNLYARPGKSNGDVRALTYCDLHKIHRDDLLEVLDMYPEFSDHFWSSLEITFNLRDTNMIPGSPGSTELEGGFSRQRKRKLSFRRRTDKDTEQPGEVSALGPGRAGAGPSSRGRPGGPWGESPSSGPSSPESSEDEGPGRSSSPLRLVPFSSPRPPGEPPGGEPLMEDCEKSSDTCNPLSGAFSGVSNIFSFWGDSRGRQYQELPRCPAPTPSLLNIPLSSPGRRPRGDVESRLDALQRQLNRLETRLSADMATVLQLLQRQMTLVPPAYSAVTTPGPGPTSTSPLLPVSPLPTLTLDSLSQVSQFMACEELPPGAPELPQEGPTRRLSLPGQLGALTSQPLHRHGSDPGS
row,Compound,pIC50
1,CC1(C(=O)N2CCO[C@@H](c3nc(-c4ccc(C(=O)Nc5cc(C(F)(F)F)ccn5)cc4)c4c(N)nccn34)C2)COC1,4.84
2,CC1(C(=O)N2CCO[C@@H](c3nc(-c4ccc(C(=O)Nc5cc(C(F)(F)F)ccn5)cc4F)c4c(N)nccn34)C2)CCC1,4.85
3,CC1(C(=O)N2CC(c3nc(-c4ccc(C(=O)Nc5cc(C(F)(F)F)ccn5)cc4)c4c(N)nccn34)C2)COC1,6.40
4,CC(=O)N1CCC[C@@H](c2nc(-c3ccc(C(=O)Nc4cc(C(F)(F)F)ccn4)cc3F)c3c(N)nccn23)C1,5.62
5,COCCC(=O)N1CCSC(c2nc(-c3ccc(C(=O)Nc4cc(C(F)(F)F)ccn4)cc3)c3c(N)nccn23)C1 (configuration not stated),5.74
6,CC1(C(=O)N2CC[C@@H](c3nc(-c4ccc(C(=O)Nc5cc(C(F)(F)F)ccn5)cc4)c4c(N)nccn34)C2)COC1,5.60
7,COCCC(=O)N1CCO[C@@H](c2nc(-c3ccc(C(=O)Nc4cc(C(F)(F)F)ccn4)cc3)c3c(N)nccn23)C1,5.24
